Type in all cases: biochemical
The target in one assay is CDK1-cyclin B (Homo sapiens, UniProt P06493). Description: Kinase assay (radioactive phosphate incorporation), CDK1-cyclin B. The settings on record: read-out: Kinase Inhibition pIC50 CDK1-cyclin B (converted). The procedure, abridged: (§1)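 Recombinant active enzyme (2-4 μg) with suitable polypeptide substrate in 25 mM β-glycerophosphate, 20 mM MOPS, 5 mM EGTA, 1 mM DTT, 1 mM […], pH 7.4. Started with 15 mM MgCl2/100 μM ATP plus [γ-32P]-ATP, incubated at 30° C; 32P incorporation captured on filter plates and counted by scintillation.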

A further assay has as its target CDK2-cyclin A (Homo sapiens, UniProt P24941). Description: Kinase assay (radioactive phosphate incorporation), CDK2-cyclin A. The settings on record: read-out: Kinase Inhibition pIC50 CDK2-cyclin A (converted). A digest of the protocol: as §1
In another assay the target is CDK2-cycline E (Homo sapiens, UniProt P24941). The experiment in a line: Kinase assay (radioactive phosphate incorporation), CDK2-cyclin E. To be noted: read-out: Kinase Inhibition pIC50 CDK2-cycline E (converted). The procedure, abridged:
as §1

The target in the next assay is CDK4-cyclin D1 (Homo sapiens, UniProt P11802). The experiment in a line: Kinase assay (radioactive phosphate incorporation), CDK4-cyclin D1. To be noted: read-out: Kinase Inhibition pIC50 CDK4-cyclin D1 (converted). A digest of the protocol: as §1
A further assay concerns the target CDK7/cyclin H (Homo sapiens, UniProt P50613). Description: CDK 7 assay (CTD peptide substrate). The settings on record: read-out: Kinase Inhibition pIC50 CDK7-cyclin H (converted). A digest of the protocol: (§2)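 Recombinant human kinase/cyclin complex (0.5-2 μg) with biotinylated CTD heptapeptide-repeat substrate and test compound, 45 min at 30° C in MOPS pH 7.2 buffer with 15 mM MgCl2 and 100 μM ATP traced with [γ-32P]ATP. Avidin added, P81 filter capture, phosphoric acid washes, scintillation counting of 32P incorporation.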

A further assay addresses CDK9/cyclin T1 (Homo sapiens, UniProt P50750). Description: CDK 9 assay (CTD peptide substrate). The settings on record: read-out: Kinase Inhibition pIC50 CDK9-cyclin T1 (converted). A digest of the protocol: as §2
The next assay has as its target GSK3b (Homo sapiens, UniProt P49841). Description: Kinase assay (radioactive phosphate incorporation), GSK-3b. To be noted: read-out: Kinase Inhibition pIC50 GSK-3b (converted). The procedure, abridged:
as §1

In the next assay the target is T1, Aurora A kinase (Homo sapiens, UniProt O14965).
T1 construct: purchased
T1 sequence (O14965 1-403): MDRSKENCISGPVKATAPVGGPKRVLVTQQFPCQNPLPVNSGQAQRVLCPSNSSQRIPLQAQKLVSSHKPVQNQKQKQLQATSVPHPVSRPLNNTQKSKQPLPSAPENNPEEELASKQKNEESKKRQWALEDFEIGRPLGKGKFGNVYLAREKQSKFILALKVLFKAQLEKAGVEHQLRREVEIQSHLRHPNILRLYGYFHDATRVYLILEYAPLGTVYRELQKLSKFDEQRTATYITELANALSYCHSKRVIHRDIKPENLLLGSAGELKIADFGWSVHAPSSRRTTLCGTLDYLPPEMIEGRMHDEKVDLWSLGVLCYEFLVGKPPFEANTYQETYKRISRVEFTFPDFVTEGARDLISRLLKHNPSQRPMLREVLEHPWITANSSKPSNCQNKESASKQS
Description: Aurora-A (human) kinase assay (Kemptide substrate). The settings on record: pIC50 is -log(IC50, M); 15 μM ATP; read-out: Kinase Inhibition pIC50 Aurora A kinase (converted). The procedure, abridged:
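Radiometric filter-binding assay: commercial aurora-A kinase (5-10 ng) with 200 μM Kemptide in MOPS/EDTA pH 7.0, started with 10 mM Mg acetate and 15 μM ATP plus [γ-33P]-ATP. Incubated 40 min at room temperature, stopped with phosphoric acid, incorporated 33P counted by scintillation.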

The target of assay [1] is T2, Flt3 (FMS-like tyrosine kinase-3) (Homo sapiens, UniProt P36888).
T2 sequence (P36888 27-993): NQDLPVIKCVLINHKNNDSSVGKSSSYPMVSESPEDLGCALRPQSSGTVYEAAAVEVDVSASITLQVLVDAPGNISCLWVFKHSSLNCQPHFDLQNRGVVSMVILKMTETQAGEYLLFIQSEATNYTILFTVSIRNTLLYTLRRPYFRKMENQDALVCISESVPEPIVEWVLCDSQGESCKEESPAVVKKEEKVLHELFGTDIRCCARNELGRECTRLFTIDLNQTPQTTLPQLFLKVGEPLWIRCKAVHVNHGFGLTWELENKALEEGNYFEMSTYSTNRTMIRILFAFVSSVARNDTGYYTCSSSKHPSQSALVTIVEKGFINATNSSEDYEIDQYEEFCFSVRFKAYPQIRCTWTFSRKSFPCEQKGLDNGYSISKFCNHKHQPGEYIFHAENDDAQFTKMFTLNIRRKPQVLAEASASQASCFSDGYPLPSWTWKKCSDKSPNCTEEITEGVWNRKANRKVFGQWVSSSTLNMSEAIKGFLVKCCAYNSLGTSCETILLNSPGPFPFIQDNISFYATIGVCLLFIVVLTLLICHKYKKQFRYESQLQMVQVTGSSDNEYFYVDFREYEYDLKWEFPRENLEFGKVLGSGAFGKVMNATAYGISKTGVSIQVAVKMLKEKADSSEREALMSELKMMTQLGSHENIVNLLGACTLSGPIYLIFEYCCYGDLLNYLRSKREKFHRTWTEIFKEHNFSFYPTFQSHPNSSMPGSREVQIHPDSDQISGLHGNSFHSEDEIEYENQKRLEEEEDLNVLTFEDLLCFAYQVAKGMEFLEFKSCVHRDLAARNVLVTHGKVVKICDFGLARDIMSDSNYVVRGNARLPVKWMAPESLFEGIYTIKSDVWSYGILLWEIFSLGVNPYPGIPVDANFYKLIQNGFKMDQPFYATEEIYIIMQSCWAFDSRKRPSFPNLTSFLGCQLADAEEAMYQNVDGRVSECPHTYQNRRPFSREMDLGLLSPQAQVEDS
The experiment in a line: Kinase assay (radioactive phosphate incorporation), Flt3. To be noted: pIC50 is -log(IC50, M), read-out: Kinase Inhibition pIC50 Flt3 (converted). A digest of the protocol:
as §1

Chain of CDK9/cyclin T1 (P50750 whole entry): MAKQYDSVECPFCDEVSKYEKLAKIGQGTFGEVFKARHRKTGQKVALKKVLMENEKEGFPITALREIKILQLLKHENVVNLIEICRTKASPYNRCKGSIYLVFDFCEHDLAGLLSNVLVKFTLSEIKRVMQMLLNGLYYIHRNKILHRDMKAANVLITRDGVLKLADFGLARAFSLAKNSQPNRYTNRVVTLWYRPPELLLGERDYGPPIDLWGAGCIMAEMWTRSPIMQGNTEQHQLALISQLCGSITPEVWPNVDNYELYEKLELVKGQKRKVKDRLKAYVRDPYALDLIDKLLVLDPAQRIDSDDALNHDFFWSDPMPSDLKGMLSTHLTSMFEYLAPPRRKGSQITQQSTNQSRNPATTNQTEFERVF
Chain of CDK9/cyclin T1 (O60563 whole entry partner): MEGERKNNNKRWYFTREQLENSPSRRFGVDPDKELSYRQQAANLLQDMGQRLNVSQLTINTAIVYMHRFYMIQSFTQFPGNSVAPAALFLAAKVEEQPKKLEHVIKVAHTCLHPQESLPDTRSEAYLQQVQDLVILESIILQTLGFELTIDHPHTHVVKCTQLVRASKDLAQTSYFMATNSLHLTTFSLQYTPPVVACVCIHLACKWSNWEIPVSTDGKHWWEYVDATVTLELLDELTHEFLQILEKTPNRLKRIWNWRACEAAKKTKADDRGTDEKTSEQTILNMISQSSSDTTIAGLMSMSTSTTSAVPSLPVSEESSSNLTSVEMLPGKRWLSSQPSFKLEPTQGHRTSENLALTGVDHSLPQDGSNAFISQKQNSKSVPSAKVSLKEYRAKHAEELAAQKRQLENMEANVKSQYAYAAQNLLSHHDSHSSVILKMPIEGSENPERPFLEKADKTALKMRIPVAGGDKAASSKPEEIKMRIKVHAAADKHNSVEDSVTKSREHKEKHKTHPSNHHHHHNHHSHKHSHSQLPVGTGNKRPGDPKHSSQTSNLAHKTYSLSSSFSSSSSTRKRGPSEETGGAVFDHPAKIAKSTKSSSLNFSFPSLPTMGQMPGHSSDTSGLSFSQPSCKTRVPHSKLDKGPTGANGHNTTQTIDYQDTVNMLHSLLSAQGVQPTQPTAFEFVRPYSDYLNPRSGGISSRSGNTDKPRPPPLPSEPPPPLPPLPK
Chain of GSK3b (P49841 whole entry, species assumed): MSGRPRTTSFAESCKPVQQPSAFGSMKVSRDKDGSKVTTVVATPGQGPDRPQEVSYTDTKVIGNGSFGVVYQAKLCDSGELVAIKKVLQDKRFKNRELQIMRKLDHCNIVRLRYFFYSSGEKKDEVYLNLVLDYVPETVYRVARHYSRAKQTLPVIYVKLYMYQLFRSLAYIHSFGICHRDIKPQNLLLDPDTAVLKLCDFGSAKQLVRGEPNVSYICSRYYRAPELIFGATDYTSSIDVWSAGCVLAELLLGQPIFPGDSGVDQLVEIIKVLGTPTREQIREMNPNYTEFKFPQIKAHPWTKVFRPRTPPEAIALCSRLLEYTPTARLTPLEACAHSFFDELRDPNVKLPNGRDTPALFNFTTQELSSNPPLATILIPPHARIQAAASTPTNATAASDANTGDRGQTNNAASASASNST
Chain of CDK4-cyclin D1 (P11802 whole entry): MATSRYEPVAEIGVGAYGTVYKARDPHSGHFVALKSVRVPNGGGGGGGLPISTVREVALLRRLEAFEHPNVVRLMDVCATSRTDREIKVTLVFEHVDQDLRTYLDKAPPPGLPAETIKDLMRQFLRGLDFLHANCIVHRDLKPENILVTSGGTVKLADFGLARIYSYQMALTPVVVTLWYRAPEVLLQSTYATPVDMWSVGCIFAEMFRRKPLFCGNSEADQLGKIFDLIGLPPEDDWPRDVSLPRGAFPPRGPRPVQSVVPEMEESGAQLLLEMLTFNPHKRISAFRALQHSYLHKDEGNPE
Chain of CDK4-cyclin D1 (P24385 whole entry partner): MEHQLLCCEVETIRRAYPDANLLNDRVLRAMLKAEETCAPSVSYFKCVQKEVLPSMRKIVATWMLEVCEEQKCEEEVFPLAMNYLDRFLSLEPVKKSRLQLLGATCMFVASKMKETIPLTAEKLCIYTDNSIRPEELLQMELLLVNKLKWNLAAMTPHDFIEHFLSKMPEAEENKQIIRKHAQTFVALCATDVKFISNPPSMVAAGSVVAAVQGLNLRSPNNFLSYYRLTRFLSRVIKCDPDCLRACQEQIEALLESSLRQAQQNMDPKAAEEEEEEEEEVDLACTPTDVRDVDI
Chain of CDK7/cyclin H (P50613 whole entry): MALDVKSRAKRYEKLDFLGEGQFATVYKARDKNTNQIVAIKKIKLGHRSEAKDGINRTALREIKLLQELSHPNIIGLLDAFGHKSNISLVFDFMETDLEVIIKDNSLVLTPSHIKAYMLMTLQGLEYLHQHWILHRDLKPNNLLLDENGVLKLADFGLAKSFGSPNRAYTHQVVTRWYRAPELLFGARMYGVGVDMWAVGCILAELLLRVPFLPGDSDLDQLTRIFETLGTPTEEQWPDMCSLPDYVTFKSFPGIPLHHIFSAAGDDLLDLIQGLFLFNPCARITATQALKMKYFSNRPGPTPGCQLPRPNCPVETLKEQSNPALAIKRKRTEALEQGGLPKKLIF
Chain of CDK7/cyclin H (P51946 whole entry partner): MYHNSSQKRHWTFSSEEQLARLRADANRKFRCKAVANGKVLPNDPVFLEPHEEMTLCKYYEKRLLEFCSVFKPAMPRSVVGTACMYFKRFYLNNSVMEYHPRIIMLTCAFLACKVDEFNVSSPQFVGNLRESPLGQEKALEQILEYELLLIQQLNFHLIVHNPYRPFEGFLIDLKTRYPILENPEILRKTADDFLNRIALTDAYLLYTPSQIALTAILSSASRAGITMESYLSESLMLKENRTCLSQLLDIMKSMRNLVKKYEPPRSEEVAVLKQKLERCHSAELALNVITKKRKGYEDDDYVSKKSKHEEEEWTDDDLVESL
Chain of CDK1-cyclin B (P06493 whole entry): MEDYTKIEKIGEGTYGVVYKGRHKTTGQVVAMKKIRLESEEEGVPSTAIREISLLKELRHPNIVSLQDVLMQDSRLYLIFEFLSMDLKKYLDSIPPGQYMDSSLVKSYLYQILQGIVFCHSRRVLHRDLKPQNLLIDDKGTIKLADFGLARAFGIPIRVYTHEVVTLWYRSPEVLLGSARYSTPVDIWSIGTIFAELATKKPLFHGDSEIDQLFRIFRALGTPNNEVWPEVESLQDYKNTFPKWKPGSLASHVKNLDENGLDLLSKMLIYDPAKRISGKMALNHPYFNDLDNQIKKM
Chain of CDK1-cyclin B (P14635 whole entry partner): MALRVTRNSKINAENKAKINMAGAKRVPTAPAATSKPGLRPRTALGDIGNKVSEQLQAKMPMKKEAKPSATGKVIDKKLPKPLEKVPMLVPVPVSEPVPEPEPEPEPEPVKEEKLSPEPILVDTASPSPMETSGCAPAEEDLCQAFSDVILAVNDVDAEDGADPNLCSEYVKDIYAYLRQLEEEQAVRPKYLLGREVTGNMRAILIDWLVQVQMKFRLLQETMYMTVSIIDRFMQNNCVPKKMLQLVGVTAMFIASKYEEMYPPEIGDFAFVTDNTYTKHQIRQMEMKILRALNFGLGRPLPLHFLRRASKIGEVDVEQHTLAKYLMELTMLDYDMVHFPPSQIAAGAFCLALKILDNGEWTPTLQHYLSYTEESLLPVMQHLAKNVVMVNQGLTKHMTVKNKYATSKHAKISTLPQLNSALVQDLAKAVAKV

Turning to `Cc1nc(C)c(-c2ccnc(Nc3cccc(CNC(=O)c4ccccc4)c3)n2)s1` [Compound 9, N-{3-[4-(2,4-Dimethyl-thiazol-5-yl)-pyrimidin-2-ylamino]-benzyl}-benzamide], the IC50 was 631 nM at CDK1-cyclin B; 1000 nM at CDK2-cyclin A; 158 nM on CDK2-cycline E; 251 nM on CDK4-cyclin D1; 5010 nM on CDK7/cyclin H; 501 nM at CDK9/cyclin T1. The IC50 is 2000 nM on GSK3b and 158 nM on Aurora A kinase.

As to `Cc1nc(C)c(-c2ccnc(Nc3cccc(CNS(=O)(=O)C(F)(F)F)c3)n2)s1` [Compound 11, N-{3-[4-(2,4-Dimethyl-thiazol-5-yl)-pyrimidin-2-ylamino]-benzyl}-C,C,C-trifluoro-methanesulfonamide], the IC50 at CDK1-cyclin B is 1580 nM; at CDK2-cyclin A, 1580 nM; on CDK2-cycline E, 158 nM; on CDK4-cyclin D1, 1260 nM; at CDK7/cyclin H it was 631 nM; on CDK9/cyclin T1, 1260 nM. Also, the IC50 is 1580 nM at GSK3b and 200 nM at Aurora A kinase.

Take `CNc1nc(C)c(-c2ccnc(Nc3ccc(CNC(C)=O)cc3)n2)s1` [Compound 14, N-{4-[4-(4-Methyl-2-methylamino-thiazol-5-yl)-pyrimidin-2-ylamino]-benzyl}-acetamide]: the IC50 on CDK1-cyclin B is 398 nM; at CDK2-cyclin A, 631 nM; at CDK2-cycline E, 39.8 nM; at CDK4-cyclin D1, 126 nM; on CDK7/cyclin H, 794 nM; at CDK9/cyclin T1 it was 79.4 nM. The IC50 at GSK3b is 631 nM; in assay [1] it was 79.4 nM.

Consider `CNS(=O)(=O)c1cccc(Nc2nccc(-c3sc(C)nc3C)n2)c1` [Compound 33, 3-[4-(2,4-Dimethyl-thiazol-5-yl)-pyrimidin-2-ylamino]-N-methyl-benzenesulfonamide], for which the IC50 is 501 nM on CDK1-cyclin B; 200 nM on CDK2-cyclin A; 50.1 nM at CDK2-cycline E; 200 nM on CDK4-cyclin D1; 126 nM on CDK7/cyclin H; 10 nM on CDK9/cyclin T1. In addition, the IC50 at GSK3b was 200 nM; at Aurora A kinase, 1260 nM.

Regarding `CCNc1nc(C)c(-c2ccnc(Nc3ccc(S(=O)(=O)NCCOC)cc3)n2)s1` [Compound 39, 4-[4-(2-Ethylamino-4-methyl-thiazol-5-yl)-pyrimidin-2-ylamino]-N-(2-methoxy-ethyl)-benzenesulfonamide], the IC50 is 50.1 nM on CDK1-cyclin B; 12.6 nM at CDK2-cyclin A; 15.8 nM on CDK2-cycline E; 501 nM at CDK4-cyclin D1; 631 nM at CDK7/cyclin H; 200 nM on CDK9/cyclin T1. The IC50 on GSK3b was 5010 nM; at Aurora A kinase, 126 nM.

Consider `CNc1nc(C)c(-c2ccnc(Nc3cccc(S(=O)(=O)NC(C)=O)c3)n2)s1` [Compound 63, N-Acetyl-3-[4-(4-methyl-2-methylamino-thiazol-5-yl)-pyrimidin-2-ylamino]-benzenesulfonamide], for which the IC50 at CDK1-cyclin B was 6310 nM; on CDK2-cyclin A, 3160 nM; on CDK2-cycline E it was 631 nM; at CDK4-cyclin D1, 501 nM; at CDK7/cyclin H it was 2510 nM; at CDK9/cyclin T1, 398 nM. Further, the IC50 at GSK3b and on Aurora A kinase was 1580 nM throughout.

As to `CC(=O)NS(=O)(=O)c1cccc(Nc2nccc(-c3sc(N)nc3C)n2)c1` [Compound 64, N-Acetyl-3-[4-(2-amino-4-methyl-thiazol-5-yl)-pyrimidin-2-ylamino]-benzenesulfonamide], the IC50 was 6310 nM at CDK1-cyclin B; 2510 nM on CDK2-cyclin A; 398 nM at CDK2-cycline E; 398 nM on CDK4-cyclin D1; 1580 nM on CDK7/cyclin H; 251 nM on CDK9/cyclin T1. Also, the results for the IC50 at GSK3b and at Aurora A kinase were 1580 nM and 200 nM, respectively.

For the molecule `CCNc1nc(C)c(-c2ccnc(Nc3ccc(S(=O)(=O)NCCO)cc3)n2)s1` [Compound 65, 4-[4-(2-Ethylamino-4-methyl-thiazol-5-yl)-pyrimidin-2-ylamino]-N-(2-hydroxy-ethyl)-benzenesulfonamide], the IC50 on CDK1-cyclin B was 50.1 nM; on CDK2-cyclin A, 20 nM; at CDK2-cycline E it was 15.8 nM; at CDK4-cyclin D1, 12.6 nM; at CDK7/cyclin H it was 200 nM; on GSK3b it was 316 nM. Also, the IC50 was 200 nM in [1] and 251 nM on Aurora A kinase.

On to `CNc1nc(C)c(-c2ccnc(Nc3ccc(S(=O)(=O)NCCO)cc3)n2)s1` [Compound 67, N-(2-Hydroxy-ethyl)-4-[4-(4-methyl-2-methylamino-thiazol-5-yl)-pyrimidin-2-ylamino]-benzenesulfonamide], for which the IC50 at CDK1-cyclin B was 50.1 nM; on CDK2-cyclin A it was 15.8 nM; at CDK2-cycline E, 6.31 nM; on CDK4-cyclin D1 it was 501 nM; on CDK7/cyclin H, 3980 nM; on GSK3b it was 1260 nM. The IC50 (in assay [1]; at Aurora A kinase) was 316 nM in each case.

Regarding `Cc1nc(C)c(-c2ccnc(Nc3ccc(S(=O)(=O)NCCO)cc3)n2)s1` [Compound 69, 4-[4-(2,4-Dimethyl-thiazol-5-yl)-pyrimidin-2-ylamino]-N-(2-hydroxy-ethyl)-benzenesulfonamide], the IC50 on CDK1-cyclin B was 10 nM; at CDK2-cyclin A, 20 nM; at CDK2-cycline E it was 10 nM; on CDK4-cyclin D1, 1000 nM; on CDK7/cyclin H, 2000 nM; on CDK9/cyclin T1 it was 398 nM. Further, the figures for the IC50 on GSK3b and on Aurora A kinase were 1580 nM and 79.4 nM, respectively.

Consider `Cc1nc(C)c(-c2ccnc(Nc3cccc(S(=O)(=O)NCCO)c3)n2)s1` [Compound 78, 3-[4-(2,4-Dimethyl-thiazol-5-yl)-pyrimidin-2-ylamino]-N-(2-hydroxy-ethyl)-benzenesulfonamide], for which the IC50 at CDK1-cyclin B is 2000 nM; at CDK2-cyclin A it was 2000 nM; on CDK2-cycline E, 316 nM; at CDK4-cyclin D1 it was 501 nM; at CDK7/cyclin H it was 1260 nM; on CDK9/cyclin T1, 158 nM. Further, the values for the IC50 on GSK3b and on Aurora A kinase were 1000 nM and 631 nM, respectively.

Values taken from patent US20090137572A1, “2-substituted-4-heteroaryl-pyrimidines useful for the treatment of proliferative disorders” (priority 2004, published 2009).
